Data as given in PMC7403827 (Clinical and Translational Medicine, 2020).

Experiment: Adverse events (CTCAE 4.0) under apatinib plus gefitinib
Assay type: in vivo, human
Details: Apatinib 250 mg Cohort (n = 7), with gefitinib 250 mg; treatment‐related AE, patients (%)

For `N#CC1(c2ccc(NC(=O)c3cccnc3NCc3ccncc3)cc2)CCCC1` [Apatinib], the “Abdominal distention, ALL” value was 2 (28.6%), the “Abdominal distention, Grade 1–2” value was 2 (28.6%) and the “Abdominal distention, Grade 3–4” value was 0. For the same compound, the “Blurred vision, ALL” value was 0, the “Blurred vision, Grade 1–2” value was 0 and the “Blurred vision, Grade 3–4” value was 0. For the same compound, the “Cough, ALL” value was 4 (57.1%), the “Cough, Grade 1–2” value was 4 (57.1%) and the “Cough, Grade 3–4” value was 0. The “Diarrhea, ALL” value was 5 (71.4%), the “Diarrhea, Grade 1–2” value was 5 (71.4%) and the “Diarrhea, Grade 3–4” value was 0. The “Dizziness, ALL” value was 0, the “Dizziness, Grade 1–2” value was 0 and the “Dizziness, Grade 3–4” value was 0. For the same compound, the “Dry skin, ALL” value was 2 (28.6%), the “Dry skin, Grade 1–2” value was 2 (28.6%) and the “Dry skin, Grade 3–4” value was 0. For the same compound, the “Dysgeusia, ALL” value was 1 (14.3%), the “Dysgeusia, Grade 1–2” value was 1 (14.3%) and the “Dysgeusia, Grade 3–4” value was 0. For the same compound, the “Eczema, ALL” value was 1 (14.3%), the “Eczema, Grade 1–2” value was 1 (14.3%) and the “Eczema, Grade 3–4” value was 0. The “Elevated ALT, ALL” value was 3 (42.9%), the “Elevated ALT, Grade 1–2” value was 2 (28.6%) and the “Elevated ALT, Grade 3–4” value was 1 (14.3%). The “Elevated AST, ALL” value was 2 (28.6%), the “Elevated AST, Grade 1–2” value was 1 (14.3%) and the “Elevated AST, Grade 3–4” value was 1 (14.3%). For the same compound, the “Epistaxis, ALL” value was 3 (42.9%), the “Epistaxis, Grade 1–2” value was 3 (42.9%) and the “Epistaxis, Grade 3–4” value was 0. The “Fatigue, ALL” value was 2 (28.6%), the “Fatigue, Grade 1–2” value was 2 (28.6%) and the “Fatigue, Grade 3–4” value was 0. The “Gastrointestinal bleeding, ALL” value was 1 (14.3%), the “Gastrointestinal bleeding, Grade 1–2” value was 1 (14.3%) and the “Gastrointestinal bleeding, Grade 3–4” value was 0. For the same compound, the “HFSR, ALL” value was 2 (28.6%), the “HFSR, Grade 1–2” value was 2 (28.6%) and the “HFSR, Grade 3–4” value was 0. For the same compound, the “Haematuria, ALL” value was 1 (14.3%), the “Haematuria, Grade 1–2” value was 1 (14.3%) and the “Haematuria, Grade 3–4” value was 0. For the same compound, the “Headache, ALL” value was 1 (14.3%), the “Headache, Grade 1–2” value was 1 (14.3%) and the “Headache, Grade 3–4” value was 0. For the same compound, the “Hematochezia, ALL” value was 1 (14.3%), the “Hematochezia, Grade 1–2” value was 1 (14.3%) and the “Hematochezia, Grade 3–4” value was 0. For the same compound, the “Hypertension, ALL” value was 5 (71.4%), the “Hypertension, Grade 1–2” value was 4 (57.1%) and the “Hypertension, Grade 3–4” value was 1 (14.3%). The “Increased bilirubin, ALL” value was 1 (14.3%), the “Increased bilirubin, Grade 1–2” value was 1 (14.3%) and the “Increased bilirubin, Grade 3–4” value was 0. The “Increased creatinine, ALL” value was 0, the “Increased creatinine, Grade 1–2” value was 0 and the “Increased creatinine, Grade 3–4” value was 0. For the same compound, the “Leukopenia, ALL” value was 0, the “Leukopenia, Grade 1–2” value was 0 and the “Leukopenia, Grade 3–4” value was 0. For the same compound, the “Nausea, ALL” value was 0, the “Nausea, Grade 1–2” value was 0 and the “Nausea, Grade 3–4” value was 0. For the same compound, the “Neutropenia, ALL” value was 0, the “Neutropenia, Grade 1–2” value was 0 and the “Neutropenia, Grade 3–4” value was 0. The “Oulorrhagia, ALL” value was 3 (42.9%), the “Oulorrhagia, Grade 1–2” value was 3 (42.9%) and the “Oulorrhagia, Grade 3–4” value was 0. The “Paronychia, ALL” value was 1 (14.3%), the “Paronychia, Grade 1–2” value was 1 (14.3%) and the “Paronychia, Grade 3–4” value was 0. The “Periodontitis, ALL” value was 1 (14.3%), the “Periodontitis, Grade 1–2” value was 1 (14.3%) and the “Periodontitis, Grade 3–4” value was 0. For the same compound, the “Pharyngalgia, ALL” value was 1 (14.3%), the “Pharyngalgia, Grade 1–2” value was 1 (14.3%) and the “Pharyngalgia, Grade 3–4” value was 0. For the same compound, the “Pneumonia (non‐interstitial), ALL” value was 1 (14.3%), the “Pneumonia (non‐interstitial), Grade 1–2” value was 1 (14.3%) and the “Pneumonia (non‐interstitial), Grade 3–4” value was 0. For the same compound, the “Proteinuria, ALL” value was 3 (42.9%), the “Proteinuria, Grade 1–2” value was 2 (28.6%) and the “Proteinuria, Grade 3–4” value was 1 (14.3%). The “Pruritus, ALL” value was 0, the “Pruritus, Grade 1–2” value was 0 and the “Pruritus, Grade 3–4” value was 0. For the same compound, the “Rash, ALL” value was 5 (71.4%), the “Rash, Grade 1–2” value was 5 (71.4%) and the “Rash, Grade 3–4” value was 0. The “Stomatitis, ALL” value was 2 (28.6%), the “Stomatitis, Grade 1–2” value was 2 (28.6%) and the “Stomatitis, Grade 3–4” value was 0. For the same compound, the “Thrombocytopenia, ALL” value was 0, the “Thrombocytopenia, Grade 1–2” value was 0 and the “Thrombocytopenia, Grade 3–4” value was 0. For the same compound, the “Trachyphonia, ALL” value was 2 (28.6%), the “Trachyphonia, Grade 1–2” value was 2 (28.6%) and the “Trachyphonia, Grade 3–4” value was 0. For the same compound, the “Vomiting, ALL” value was 0, the “Vomiting, Grade 1–2” value was 0 and the “Vomiting, Grade 3–4” value was 0.
